Results: the supplement of paper PMC11061612

Legend:
[1] = tested on: CAL-39 (Other Solid Carcinomas); experiment: Bliss excess, mean over the matrix (fraction); higher = more synergy
Method in brief: (§1)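 Bliss excess equals the observed combination effect minus the expected value EA + EB − EA·EB, where EA and EB are the effects of each agent alone. Combination Emax is the second-highest inhibition within the matrix. Inhibition was scaled from CellTiter-Glo 2.0 luminescence, with 0 set by vehicle wells and 1 by blank wells, after 72 hours of two-drug dosing of cells plated in 1536-well plates.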

CS1 (Chondrosarcoma) = experiment: as above
Method in brief: as §1

D-392MG (Glioblastoma) = experiment: as above
Method in brief: as §1

[2] = tested on: DOK (Oral Cavity Carcinoma); experiment: as above
Method in brief: as §1

[3] = tested on: HCT-116 (Colorectal Carcinoma); experiment: as above
Method in brief: as §1

[4] = tested on: HLE (Hepatocellular Carcinoma); experiment: as above
Method in brief: as §1

[5] = tested on: MEG-01 (Chronic Myelogenous Leukemia); experiment: as above
Method in brief: as §1

[6] = tested on: P31-FUJ (Acute Myeloid Leukemia); experiment: as above
Method in brief: as §1

[7] = tested on: SK-UT-1 (Other Solid Carcinomas); experiment: as above
Method in brief: as §1

[8] = tested on: SNG-M (Endometrial Carcinoma); experiment: as above
Method in brief: as §1

[9] = tested on: SW948 (Colorectal Carcinoma); experiment: as above
Method in brief: as §1

[10] = tested on: TC-YIK (Other Solid Carcinomas); experiment: as above
Method in brief: as §1

[11] = tested on: YT (Other Blood Carcinomas); experiment: as above
Method in brief: as §1

[12] = tested on: CAL-39 (Other Solid Carcinomas); experiment: combination Emax (second highest fraction inhibited in the dose matrix, 72 h); higher = more inhibition; extreme values may be limits of the assay
Method in brief: as §1

[13] = tested on: DOK (Oral Cavity Carcinoma); experiment: as above
Method in brief: as §1

H4 (Low Grade Glioma) = experiment: as above
Method in brief: as §1

HCC38 (Breast Carcinoma) = experiment: as above
Method in brief: as §1

[14] = tested on: NOMO-1 (Acute Myeloid Leukemia); experiment: as above
Method in brief: as §1

[15] = tested on: SW948 (Colorectal Carcinoma); experiment: as above
Method in brief: as §1

[16] = tested on: TC-YIK (Other Solid Carcinomas); experiment: as above
Method in brief: as §1

O=C(c1cc(Cc2n[nH]c(=O)c3ccccc23)ccc1F)N1CCN(C(=O)C2CC2)CC1 [Olaparib] + Cc1c2c(nn1C)CSCc1cc(n(C)n1)CSc1cc(c3ccccc3c1)OCCCc1c(C(=O)O)n(C)c3c-2c(Cl)ccc13 [AZD5991] (first compound max 10 µM, 7x7, partner max 1 µM)
Bliss excess [1]: -0.0409 | Bliss excess (CS1 (Chondrosarcoma)): -0.0483 | Bliss excess (D-392MG (Glioblastoma)): -0.0661 | Bliss excess [2]: -0.0192 | Bliss excess [3]: -0.0086 | Bliss excess [4]: -0.0144 | Bliss excess [5]: -0.0416 | Bliss excess [6]: -0.0125 | Bliss excess [7]: -0.0141 | Bliss excess [8]: 0.002 | Bliss excess [9]: -0.0449 | Bliss excess [10]: -0.0566 | Bliss excess [11]: 0.0191 | combination Emax [12]: 0.21 | combination Emax [13]: 0.381 | combination Emax (H4 (Low Grade Glioma)): 0.393 | combination Emax (HCC38 (Breast Carcinoma)): 0.156 | combination Emax [14]: 0.771 | combination Emax [15]: 0.158 | combination Emax [16]: 0.449

N#Cc1cnc(Nc2cc(NC[C@H]3CNCCO3)c(C(F)(F)F)cn2)cn1 [SRA737] + C=CCn1c(=O)c2cnc(Nc3ccc(N4CCN(C)CC4)cc3)nc2n1-c1cccc(C(C)(C)O)n1 [AZD1775] (first compound max 10 µM, partner max 1 µM)
Bliss excess [1]: -0.0255 | Bliss excess (CS1 (Chondrosarcoma)): 0.0399 | Bliss excess (D-392MG (Glioblastoma)): -0.0523 | Bliss excess [2]: -0.0139 | Bliss excess [3]: 0.0011 | Bliss excess [4]: 0.013 | Bliss excess [5]: -0.0314 | Bliss excess [6]: 0.0411 | Bliss excess [7]: 0.0497 | Bliss excess [8]: -0.0045 | Bliss excess [9]: 0.0054 | Bliss excess [10]: 0.0278 | Bliss excess [11]: 0.0379 | combination Emax [12]: 0.454 | combination Emax [13]: 0.481 | combination Emax (H4 (Low Grade Glioma)): 0.792 | combination Emax (HCC38 (Breast Carcinoma)): 0.576 | combination Emax [14]: 0.988 | combination Emax [15]: 0.807 | combination Emax [16]: 0.858

N#Cc1cnc(Nc2cc(NC[C@H]3CNCCO3)c(C(F)(F)F)cn2)cn1 [SRA737] + CCc1c2c(nc3ccc(O)cc13)-c1cc3c(c(=O)n1C2)COC(=O)[C@]3(O)CC [SN-38] (first compound max 10 µM, 7x7, partner max 0.3 µM)
Bliss excess [1]: -0.0157 | Bliss excess (CS1 (Chondrosarcoma)): -0.0579 | Bliss excess (D-392MG (Glioblastoma)): -0.0555 | Bliss excess [2]: -0.0531 | Bliss excess [3]: -0.0306 | Bliss excess [4]: -0.0755 | Bliss excess [5]: 0.0468 | Bliss excess [6]: -0.0541 | Bliss excess [7]: -0.0033 | Bliss excess [8]: -0.111 | Bliss excess [9]: 0.154 | Bliss excess [10]: -0.0041 | Bliss excess [11]: -0.0677 | combination Emax [12]: 0.93 | combination Emax [13]: 0.582 | combination Emax (H4 (Low Grade Glioma)): 0.832 | combination Emax (HCC38 (Breast Carcinoma)): 0.682 | combination Emax [14]: 0.997 | combination Emax [15]: 0.834 | combination Emax [16]: 1

N#Cc1cnc(Nc2cc(NC[C@H]3CNCCO3)c(C(F)(F)F)cn2)cn1 [SRA737] + Nc1ccn([C@@H]2O[C@H](CO)[C@@H](O)C2(F)F)c(=O)n1 [Gemcitabine] (first compound max 10 µM, 7x7, partner max 0.3 µM)
Bliss excess [1]: 0.0461 | Bliss excess (CS1 (Chondrosarcoma)): 0.0679 | Bliss excess (D-392MG (Glioblastoma)): 0.0579 | Bliss excess [2]: 0.0191 | Bliss excess [3]: 0.0063 | Bliss excess [4]: 0.029 | Bliss excess [5]: -0.0324 | Bliss excess [6]: 0.057 | Bliss excess [7]: 0.0162 | Bliss excess [8]: -0.0731 | Bliss excess [9]: 0.079 | Bliss excess [10]: -0.0605 | Bliss excess [11]: 0.0694 | combination Emax [12]: 0.932 | combination Emax [13]: 0.704 | combination Emax (H4 (Low Grade Glioma)): 0.953 | combination Emax (HCC38 (Breast Carcinoma)): 0.731 | combination Emax [14]: 1 | combination Emax [15]: 0.828 | combination Emax [16]: 0.872

N#Cc1cnc(Nc2cc(NC[C@H]3CNCCO3)c(C(F)(F)F)cn2)cn1 [SRA737] + O=c1[nH]cc(F)c(=O)[nH]1 [5-Fluorouracil] (first compound max 10 µM, 7x7, partner max 20 µM)
Bliss excess [1]: 0.0175 | Bliss excess (CS1 (Chondrosarcoma)): -0.0251 | Bliss excess (D-392MG (Glioblastoma)): -0.0369 | Bliss excess [2]: 0.0382 | Bliss excess [3]: 0.0445 | Bliss excess [4]: -0.0146 | Bliss excess [5]: -0.0518 | Bliss excess [6]: -0.0034 | Bliss excess [7]: -0.0052 | Bliss excess [8]: -0.0115 | Bliss excess [9]: -0.0314 | Bliss excess [10]: 0.0119 | Bliss excess [11]: 0.0012 | combination Emax [12]: 0.345 | combination Emax [13]: 0.345 | combination Emax (H4 (Low Grade Glioma)): 0.619 | combination Emax (HCC38 (Breast Carcinoma)): 0.507 | combination Emax [14]: 0.985 | combination Emax [15]: 0.45 | combination Emax [16]: 0.723

CC1(C)CCC(CN2CCN(c3ccc(C(=O)NS(=O)(=O)c4ccc(NCC5CCOCC5)c([N+](=O)[O-])c4)c(Oc4cnc5[nH]ccc5c4)c3)CC2)=C(c2ccc(Cl)cc2)C1 [Venetoclax] + CS(=O)(=O)CCNCc1ccc(-c2ccc3ncnc(Nc4ccc(OCc5cccc(F)c5)c(Cl)c4)c3c2)o1 [Lapatinib] (first compound max 1 µM, 7x7, partner max 10 µM)
Bliss excess [1]: -0.0062 | Bliss excess (CS1 (Chondrosarcoma)): -0.0662 | Bliss excess (D-392MG (Glioblastoma)): -0.0732 | Bliss excess [2]: -0.0301 | Bliss excess [3]: -0.0369 | Bliss excess [4]: -0.0347 | Bliss excess [5]: -0.0101 | Bliss excess [6]: 0.0811 | Bliss excess [7]: -0.0286 | Bliss excess [8]: -0.0166 | Bliss excess [9]: -0.0407 | Bliss excess [10]: -0.0035 | Bliss excess [11]: 0.0123 | combination Emax [12]: 0.913 | combination Emax [13]: 0.645 | combination Emax (H4 (Low Grade Glioma)): 0.171 | combination Emax (HCC38 (Breast Carcinoma)): 0.169 | combination Emax [14]: 0.319 | combination Emax [15]: 0.352 | combination Emax [16]: 0.294
